Assay results reported in patent US8987486B2, “Trans-2-decenoic acid derivative and pharmaceutical agent containing the same” (Nagoya Industrial Science Research Institute, priority 2010, dated 2015).

Legend:
Type in all cases: in vivo
[1] = system: chronic mild stress-induced depression model mice; assay: Tail suspension test in chronic mild stress-induced depression model mice; conditions: control 103.18±15.96 seconds
Experimental: Female ddY strain mice of seven weeks age (n=8 to 12) were (A) subjected to forced swimming for 15 minutes and then to normal breeding for two clays, (B) subjected to breeding in an inclined cage for two days and then to normal breeding for one day, (C) subjected to breeding for one day where the floor mat was made wet and then to normal breeding for one day and (D) subjected to breeding for one day using a cage which was rotated at the rate of 180 rotations/minute and then to normal breeding for one clay. Further, (B) to (D) were repeated for two times and stress was loaded for three weeks in total to prepare chronic mild stress-induced depression model mice. During that time, the compound of the present invention dissolved in PBS or in a PBS solvent containing DMSO, etc. was orally administered once daily for three weeks and, after that, the suppressive effect for depressive symptom was evaluated by means of a tail suspension test. Thus, the area which was 1 cm from the tip of the tail of a mouse was grasped with hand and kept at the height of 10 cm from the floor, an observation was conducted for six minutes and the length of immobility time which is an index for the depressive symptom was measured. Incidentally, the test of significance was carried out by a one-way ANOVA, Tukey's Multiple Comparison Test.

[2] = system: chronic mild stress-induced depressive model mice; assay: Spontaneous alternation behavior test (Y-maze test) in chronic mild stress-induced depressive model mice
Experimental: The same operation as in the above Test Example 7 was conducted to prepare chronic mild stress-induced depressive model mice (n=8 to 12). During that time, the compound of the present invention dissolved in PBS or in a PBS solvent containing DMSO, etc. was orally administered once daily for three weeks and, after that, evaluation for learning and memorizing behaviors was conducted by means of a spontaneous alternation behavior test (Y-maze test). Thus, an animal was placed at the front end of any arm in the Y-maze and allowed to freely walk in the maze for ten minutes, the arms into which the animal entered were successively recorded and the entry numbers of the animal into each arm within a measuring time (total arm entries) and the combined entry numbers into continuously different three arms (alternating behavior numbers) were checked. The alternating behavior rate (%) was calculated by the following expression and the spontaneous alternating behavior was evaluated as an index of short-term memory. Incidentally, the test of significance was conducted by a one-way ANOVA, Tukey's Multiple Comparison Test. Alternating behavior rate (%)=(Alternating behavior numbers)/(Total arm entries−2)×100

[3] = system: Spinal cord injury model rats; assay: Repairing action for the spinal cord injury, BBB scale (complete cut at T10); conditions: 100 μg/kg body weight intraperitoneally once daily, after six weeks, n=6
Experimental: Spinal cord injury model rats were prepared and the repairing action of the compound 1 for the spinal cord injury was investigated. The compound 1 was dissolved in a phosphate buffered saline (PBS) and intraperitoneally administered to each spinal cord injury model rat once daily in a dose of 100 μg/kg body weight. As a control, PBS was similarly administered.
Female Wistar rats of seven weeks age were anesthetized with pentobarbital (40 mg/kg), the spinal column was exposed, vertebral arch of the ninth thoracic vertebra was excised and the tenth thoracic cord (T10) was completely cut using a sharp knife. After the back muscle and the skin were satured, paralysis of hind limbs was confirmed to prepare spinal cord injury model rats.
For each of the groups administered with the compound 1 and PBS, the improvement in motor function of the spinal cord injury model rats during six weeks was evaluated every day according to a BBB scale (Basso D M, et al., J. Neurotrauma, 12:1-21 (1995)) (0 for immediately after the injury while 21 for non-injury). Incidentally, the test of significance was conducted by a two-way ANOV, Bonferroni test.

[4] = system: Male ddY strain mice loaded with forced swimming stress; assay: Suppressive effect for depressive symptom as a result of stress loading (forced swimming); conditions: 100 μg/kg body weight intraperitoneally every day, thirteenth day after stress loading, versus PBS control
Experimental: Male ddY strain mice of seven weeks age were loaded, as the stress, with forced swimming of 6 minutes every day for 2 weeks and the evaluation of suppressive effect for depression symptom was conducted. Thus, as from the initiation of loading the stress, the compound 1 dissolved in 0.1% DMSO was intraperitoneally administered every day in a dose of 100 μg/kg body weight and the immobility time of the mice upon the forced swimming was measured (n=5). As a control, a phosphate-buffered physiological saline (PBS) was intraperitoneally administered to the mice during two weeks and the immobility time was measured (n=4). The cases to which no stress was loaded were also administered with each of the compound 1 and the phosphate buffered saline (PBS) as same as in the cases to which the stress was loaded. Incidentally the test of significance was conducted by means of a two-way ANOVA, Bonferroni test.

CCCCCCC/C=C/C(=O)SCCN(C)C [Compound 55, (E)-S-2-(dimethylamino)ethyl dec-2-enethioate]
immobility time (tail suspension test) ([1]; 1,500 μg/kg orally once daily for three weeks): 63.72 ± 10.13 s

CCCCCCC/C=C/C(=O)OCCN(CC)CC [Compound 6, (E)-2-(diethylamino)ethyl dec-2-enoate]
immobility time (tail suspension test) ([1]; 1,500 orally once daily for three weeks): 80.67 ± 23.94 s | alternating behavior rate ([2]; 300 μg/kg orally once daily for three weeks, control 60.21±2.39%): 75.40±3.22%

CCCCCCC/C=C/C(=O)NCCN(C)C [Compound 36, (E)-N-2-(dimethylamino)ethyl dec-2-enamide]
alternating behavior rate ([2]; 1,500 μg/kg orally once daily for three weeks, control 61.76±2.01%): 71.52±2.50%

CCCCCCC/C=C/C(=O)OCCN(C)C [Compound 1, (E)-2-(dimethylamino)ethyl dec-2-enoate]
mean value of BBB scores±SE [3]: 11.60±2.2 | immobility time upon forced swimming [4]: significantly shortened the immobility time
